Some test systems named below: OVCAR-5 ovarian; OVCAR-4 ovarian; EKVX NSCLC; SR leukemia; UACC-257 melanoma; M14 melanoma; A498 renal.
Common to all, as to test: DTP human tumour cell line panel, 48 h

Each structure is given as a SMILES string.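 Where inhibition never reached the appropriate level, the endpoint shown equals the highest concentration tested. Otherwise, values were interpolated linearly from a five-concentration, 48-hour dose response in 96-well plates. At the TGI there is no net growth.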 Where a SMILES comes first, the peptide text is derived from it. The star is where a group is joined. Cbz = O=C(OCc1ccccc1)*; OBn = c1ccc(CO*)cc1

For `CCc1ccc2[nH]c(O)c(-c3[nH]c4ccccc4c3N=O)c2c1`, the TGI – broadly, the concentration giving total growth inhibition – with OVCAR-5 ovarian is 58.2 µM; in the experiment with OVCAR-4 ovarian, 21.8 µM; in the experiment with EKVX NSCLC, 20 µM; in the experiment on SR leukemia, > 100 µM; in the experiment with UACC-257 melanoma, 28.5 µM; in the experiment on M14 melanoma, 25.3 µM. In addition, the TGI in the experiment on A498 renal worked out at 15 µM.
Regarding `O=C(CCCCCCCCC(=O)N1C(=O)CC(=O)N(c2cccc(Cl)c2)C1=S)N1C(=O)CC(=O)N(c2cccc(Cl)c2)C1=S`, the TGI was > 100 µM in the experiment with OVCAR-5 ovarian; > 100 µM in the experiment with OVCAR-4 ovarian; > 100 µM in the experiment with EKVX NSCLC; 67.8 µM in the experiment with SR leukemia; > 100 µM in the experiment on UACC-257 melanoma; > 100 µM in the experiment on M14 melanoma. The TGI in the experiment with A498 renal is > 100 µM.
For `CC[C@H](C)[C@H]1NC(=O)[C@@H](NC(=O)[C@@H](CC(C)C)N(C)CC2CCCN2C(=O)C(C)=O)[C@@H](C)OC(=O)[C@H](Cc2ccc(OC)cc2)N(C)C(=O)C2CCCN2C(=O)[C@H](CC(C)C)NC(=O)[C@@H](C)C(=O)[C@H](C(C)C)OC(=O)C[C@@H]1O` (stereo not given in full), the TGI in the experiment on OVCAR-5 ovarian came to 0.014 µM; in the experiment on OVCAR-4 ovarian, 0.00687 µM; in the experiment on EKVX NSCLC, 0.0509 µM; with SR leukemia it was 0.00471 µM; in the experiment on UACC-257 melanoma it was 0.0128 µM; in the experiment on M14 melanoma, 0.00972 µM. The compound further displayed a TGI in the experiment with A498 renal of 0.0146 µM.
On to `COc1cc(CC2c3cc(OC)c(OC)cc3CCN2C)c(Oc2cc3c(cc2OC)-c2c(O)c(OC)cc4c2C(C3)N(C)CC4)cc1OC` (stereo not given), for which the TGI with OVCAR-5 ovarian is > 100 µM; in the experiment with OVCAR-4 ovarian, 90.7 µM; in the experiment with EKVX NSCLC, 53.1 µM; in the experiment with SR leukemia, 17.5 µM; in the experiment with UACC-257 melanoma, 37.4 µM; with M14 melanoma it was 22.8 µM. Further, the TGI with A498 renal is 43 µM.
Take `O=S1(=O)c2ccccc2C(=NO)c2ccccc21`: the TGI with OVCAR-5 ovarian, in the experiment on OVCAR-4 ovarian, in the experiment on EKVX NSCLC, in the experiment on SR leukemia, in the experiment with UACC-257 melanoma and in the experiment on M14 melanoma was > 100 µM throughout. The TGI in the experiment on A498 renal was > 100 µM.
Regarding `N#Cc1c(N2CCCC2)ncn(Cc2ccccc2)c1=O`, the TGI in the experiment on OVCAR-5 ovarian, in the experiment with OVCAR-4 ovarian, in the experiment on EKVX NSCLC, with SR leukemia, in the experiment with UACC-257 melanoma and in the experiment on M14 melanoma was > 100 µM in each case. In addition, the TGI in the experiment on A498 renal is > 100 µM.
For the compound `COC(=O)n1c(=O)n(-c2ccccc2)c(=O)n1C(=O)OC`, the TGI with OVCAR-5 ovarian, with OVCAR-4 ovarian, in the experiment with EKVX NSCLC, with SR leukemia, with UACC-257 melanoma and in the experiment on M14 melanoma was > 100 µM throughout. For the same compound, the TGI in the experiment on A498 renal was > 100 µM.
Turning to `CNC(=O)c1cc(NC(=O)N(CCC#N)CCN(C(=O)N[C@@H](Cc2ccccc2)C(=O)N[C@@H](CC(C)C)C(=O)NC)c2ccccc2)ccc1OC`, the TGI with OVCAR-5 ovarian was > 100 µM; in the experiment on OVCAR-4 ovarian it was > 100 µM; in the experiment with EKVX NSCLC, > 100 µM; in the experiment on SR leukemia, 68.9 µM; in the experiment on UACC-257 melanoma it was 51 µM; in the experiment on M14 melanoma it was > 100 µM. Further, the TGI in the experiment with A498 renal is > 91.5 µM.
`COC(OC)C1OC(CO)C(n2ccc(N)nc2=O)C1O` (stereo not given): the TGI with OVCAR-5 ovarian, in the experiment with OVCAR-4 ovarian, in the experiment on EKVX NSCLC, in the experiment with SR leukemia, in the experiment on UACC-257 melanoma and in the experiment with M14 melanoma was > 100 µM each time. Besides, the TGI in the experiment with A498 renal was > 100 µM.
For `CN(NC(=O)CCCl)C1=NCCCCN1`, the TGI in the experiment on OVCAR-5 ovarian, in the experiment with OVCAR-4 ovarian, with EKVX NSCLC, in the experiment with SR leukemia, with UACC-257 melanoma and in the experiment on M14 melanoma was > 100 µM in each case. In the experiment with A498 renal, the TGI was > 100 µM.
Take `COC(=O)C(Cc1ccc(O)cc1)NC(=O)C(CC(=O)OCc1ccccc1)NC(=O)OCc1ccccc1` (stereo not given) (Cbz-Asp(OBn)-Tyr-OMe; configuration not given here): the TGI in the experiment with OVCAR-5 ovarian came out at 43.2 µM; with EKVX NSCLC, 46.7 µM; in the experiment on SR leukemia, 66.3 µM; in the experiment with UACC-257 melanoma, 45.5 µM; in the experiment on M14 melanoma, 44.4 µM; in the experiment on A498 renal, 62.4 µM.
With `CCOC(=O)CNC(=O)C(C)NC(=O)C(NC(=O)CC(c1ncc[nH]1)c1ncc[nH]1)C(C)CC` (stereo not given), the TGI with OVCAR-5 ovarian, in the experiment on OVCAR-4 ovarian, with EKVX NSCLC, in the experiment on SR leukemia, with UACC-257 melanoma and with M14 melanoma was > 100 µM in each case. The total growth inhibition concentration (TGI) in the experiment on A498 renal is > 100 µM.
On to `Oc1ccc(SCc2cc(O)c(O)c(O)c2)cc1`, for which the TGI in the experiment on OVCAR-5 ovarian is 50.7 µM; in the experiment on EKVX NSCLC, > 100 µM; with SR leukemia, > 100 µM; in the experiment with UACC-257 melanoma, > 100 µM; in the experiment on M14 melanoma, 33.1 µM; in the experiment on A498 renal it was > 100 µM.
For `Fc1ccc(N=NN2CCCC2)cc1`, the TGI in the experiment with OVCAR-5 ovarian, in the experiment with OVCAR-4 ovarian, with EKVX NSCLC, in the experiment on SR leukemia, with UACC-257 melanoma and in the experiment on M14 melanoma was > 100 µM each time. Also, the concentration for total growth inhibition (TGI) in the experiment on A498 renal is > 100 µM.
For the compound `O=c1c(C=Nc2ccc([N+](=O)[O-])cc2)c(O)n(-c2ccccc2)c(=O)n1-c1ccccc1`, the TGI in the experiment with OVCAR-5 ovarian, with OVCAR-4 ovarian, in the experiment with EKVX NSCLC, in the experiment with SR leukemia, in the experiment on UACC-257 melanoma and with M14 melanoma was > 100 µM in each case. Also, the TGI in the experiment on A498 renal is > 100 µM.
As to `Cc1nc2ccc(S(=O)(=O)O)cc2c(=O)n1-c1ccc(C(=O)NN2C(=O)C(Cl)C2c2ccccc2O)cc1` (stereo not given), the TGI in the experiment on OVCAR-5 ovarian, in the experiment on OVCAR-4 ovarian, with EKVX NSCLC, in the experiment with SR leukemia, in the experiment with UACC-257 melanoma and in the experiment with M14 melanoma was > 100 µM each time. For the same compound, the TGI in the experiment on A498 renal is > 100 µM.

These data come from PubChem BioAssay (NCI).
